Where a name gives a salt, the structure may show the parent alone.
Experiment: Simulated in vitro nasal diffusion/release (vertical diffusion cell)
Details: pH 6.4

`CN[C@]1(c2ccccc2Cl)CCCCC1=O` [Esketamine HCl powder, esketamine hydrochloride] gave a recovery at 10 min of 45.1%, a recovery at 30 min of 75.9% and a recovery at 60 min of 79.2%.

— US11992468B2, “Abuse-deterrent dosage forms containing esketamine” (Clexio Biosciences Ltd., priority 2019, dated 2024)
